Series [1] can be described thus: NOVARTIS: Cytotoxicity against human hepatocellular carcinoma cell line (Huh7). It is filed as toxicity, cell-based, Huh-7. Particulars: Huh7 cells (hepatocellular carcinoma cell line).
Series [2] deals with Plasmodium falciparum. The experiment in a line: NOVARTIS: Inhibition of Plasmodium falciparum W2 (drug-resistant) proliferation in erythrocyte-based infection assay. It is filed as functional, organism-based. Particulars: Plasmodium falciparum, W2; read-out: EC50.
For series [3], the system named is Plasmodium falciparum. The experiment in a line: NOVARTIS: Inhibition of Plasmodium falciparum 3D7 (drug-susceptible) proliferation in erythrocyte-based infection assay. It is filed as functional, organism-based. Particulars: Plasmodium falciparum, 3D7.

In the case of `O=C(C[n+]1ccccc1)NN=Cc1ccc(Cl)c(Cl)c1`, the CC50 in series [1] is greater than 100 µM. The results for the EC50 in series [2] and in series [3] were 3380 nM and 2840 nM, respectively.

`COc1cccc2c1C(=O)C1C(O)=C3C(=C(O)C1C2=O)CC(O)(C(C)=NN=C1CC(C)(C)N(O)C(C)(C)C1)CC3OC1CC(C)(N)C(O)CO1` (configuration not stated) gave a CC50 in series [1] greater than 10 µM. The figures for the EC50 in series [2] and in series [3] were 337 nM and 416 nM, respectively.

`CCCCCCn1c2c(c(=N)c3c1CCC3)CCCC2`: the CC50 in series [1] is greater than 10 µM. Moreover, the results for the EC50 in series [2] and in series [3] were 336 nM and 364 nM, respectively.

In the case of `NS(=O)(=O)c1ccc(CCNC(=O)C=Cc2ccc3c(c2)OCO3)cc1`, the CC50 in series [1] was greater than 100 µM. Moreover, the EC50 in series [2] is 3390 nM; in series [3] it was greater than 7760 nM.

In turn, `CC(=O)N1c2ccccc2C(C)(c2ccc(Br)cc2)CC1(C)C` (configuration not stated) showed a CC50 in series [1] of 71.4 µM. The results for the EC50 in series [2] and in series [3] were 2420 nM and 4270 nM, respectively.

Regarding `CC(C)C1=Nc2cc(C(N)=O)ccc2CN1C1CC1`, the CC50 in series [1] was greater than 10 µM. Moreover, the EC50 in series [2] was greater than 338 nM; in series [3] it was 30.8 nM.

The compound `O=C(NCCCCNc1ccnc2cc(Cl)ccc12)c1ccc(Br)cc1` returned a CC50 in series [1] greater than 8.73 µM. The EC50 was 291 nM in series [2] and 218 nM in series [3].

With `COc1ccc(OC)c(-c2ccc(C(=O)N3CCN(C/C=C/c4ccccc4)CC3)c(N(C)C)n2)c1`, the CC50 in series [1] was greater than 10 µM. Besides, the EC50 amounted to 333 nM in series [2] and 922 nM in series [3].

`COc1ccccc1N1CCN(C2CCN(C3CCC(c4ccccc4)CC3)CC2)CC1` (configuration not stated): the CC50 in series [1] amounted to 20.2 µM. The figures for the EC50 in series [2] and in series [3] were 670 nM and 293 nM, respectively.

For `CC(C)NC(=O)[C@@H]1C[C@@H](NCc2cccnc2)CN1Cc1ccc2ccccc2c1`, the CC50 in series [1] is greater than 100 µM. Moreover, the figures for the EC50 in series [2] and in series [3] were 3310 nM and greater than 10900 nM, respectively.

Turning to `O=C(Nc1ccc(Cl)c(Cl)c1)Nc1cc(C(=O)NCCCN2CCCCCC2)ccc1Cl`, the CC50 in series [1] was greater than 43 µM. Besides, the EC50 in series [2] is 1420 nM; in series [3] it was 791 nM.

Consider `C=C1C=CN(Cc2ccccc2)c2ccc(OC)cc21`, for which the CC50 in series [1] is greater than 10 µM. Moreover, the EC50 in series [2] came out at 330 nM; in series [3], 451 nM.

In series [1], `Cc1ccc(-n2c(SCc3cccc4ccccc34)nc3sc4c(c3c2=O)CCN(C)C4)cc1` had a CC50 greater than 100 µM. Further, the EC50 was 3300 nM in series [2] and greater than 6520 nM in series [3].

Consider `CC(C)(C)c1ccc(C(=O)Nc2ccc(NC(=O)c3ccc(-c4ccc([N+](=O)[O-])cc4)o3)cc2)cc1`, for which the CC50 in series [1] is greater than 100 µM. Further, the EC50 came out at 3300 nM in series [2] and 1210 nM in series [3].

The compound `CCCCC(=O)N(CCCC(C)Nc1cc(OC)cc2cccnc12)Cc1ccccc1OC` (configuration not stated) returned a CC50 in series [1] of 1.06 µM. Also, the EC50 in series [2] is 35 nM; in series [3] it was 348 nM.

For the compound `CCOC(=O)c1c(NC(=O)c2ccc(S(=O)(=O)N(C)c3ccccc3)cc2)sc2c1CCN(C(=O)OCC)C2`, in series [1], the CC50 is greater than 100 µM. For the same compound, the half-maximal effective concentration (EC50) in series [2] is greater than 3290 nM; in series [3], greater than 10600 nM.

The compound `Cc1ccccc1NC(=S)NC(Cc1ccccc1)c1ccccc1` (configuration not stated) yielded a CC50 in series [1] greater than 10 µM. For the same compound, the EC50 was determined as 340 nM in series [2] and 374 nM in series [3].

Regarding `Cc1ccccc1Nc1nc(NCc2ccco2)c2ccccc2n1`, the CC50 in series [1] is 15.6 µM. The values for the EC50 in series [2] and in series [3] were 529 nM and 548 nM, respectively.

`Clc1cccc(CSc2nc(Nc3ccc4c(c3)OCO4)c3ccccc3n2)c1`: in series [1], the CC50 is greater than 82.9 µM. Further, the EC50 in series [2] was determined as 2790 nM; in series [3], 1170 nM.

`COc1ccc(C(C)=NNc2nnc(C)c(O)n2)cc1`: in series [1], it took 7.68 µM to reach half-maximal cytotoxicity (CC50). Besides, the EC50 in series [2] turned out to be 258 nM; in series [3] it was 188 nM.

For the compound `O=C(Cc1ccccc1)NCCCCNc1ccnc2cc(Cl)ccc12`, the CC50 in series [1] was greater than 9.6 µM. Further, the EC50 in series [2] was determined as 316 nM; in series [3], 330 nM.

Consider `N#Cc1cc(N2CC3CC(C2)c2cccc(=O)n2C3)c([N+](=O)[O-])cc1C#N` (configuration not stated), for which the CC50 in series [1] is greater than 100 µM. The EC50 in series [2] is 3360 nM; in series [3], greater than 12500 nM.

`CCCCCCCn1c2c(c(=N)c3c1CCC3)CCCC2`: half-maximal cytotoxicity in series [1] (CC50) was put at 2.73 µM. The EC50 came to 91.4 nM in series [2] and 69.3 nM in series [3].

`Cc1nc(-c2nc3c(s2)CN(C(=O)CCc2cccnc2)CC3)cs1`: the CC50 in series [1] was greater than 10 µM. The results for the EC50 in series [2] and in series [3] were 335 nM and 1090 nM, respectively.

`CCCCc1ccc(Nc2ncnc3sc4c(c23)CCCC4)cc1`: in series [1], the CC50 is greater than 100 µM. Besides, the EC50 stood at 3390 nM in series [2] and 11400 nM in series [3].

In the case of `CCN1CC=C(c2c[nH]c3ccccc23)CC1`, the CC50 in series [1] is greater than 10 µM. Further, the EC50 is 339 nM in series [2] and 885 nM in series [3].

`CSC1=C(C#N)C(c2ccc(O)cc2)CC(=O)N1` (configuration not stated) gave a CC50 in series [1] greater than 100 µM. In addition, the figures for the EC50 in series [2] and in series [3] were 3280 nM and greater than 9510 nM, respectively.

In series [1], `CC(=NNC(=S)N(C)C)c1ccccn1` displayed a half-maximal cytotoxic concentration (CC50) greater than 10 µM. The EC50 came to 338 nM in series [2] and 311 nM in series [3].

With `COc1ccc(-c2ncc([C@@H]3C[C@H]4CN(c5ccccc5)C(=O)[C@]45CCCN35)cn2)cc1`, the CC50 in series [1] came out at 29.8 µM. The 50% effective concentration (EC50) in series [2] turned out to be 995 nM; in series [3], 2260 nM.

`Cc1cccn2c(=O)c3cc(C(=O)NC4CCCC4)c(=N)n(CCc4ccccc4)c3nc12` returned a CC50 in series [1] greater than 100 µM. In addition, the EC50 in series [2] is 3290 nM; in series [3] it was 2200 nM.

Compound `COc1ccc(NC(=O)c2cc3cc(C4(O)CCN(CC5CC=CCC5)CC4)ccc3o2)cc1` (configuration not stated) gave a CC50 in series [1] of 25.1 µM. The EC50 in series [2] stood at 824 nM; in series [3] it was 381 nM.

Turning to `CC(=C(Cl)Cl)C(Br)=C(Br)CO`, the CC50 in series [1] was 50.9 µM. For the same compound, the results for the EC50 in series [2] and in series [3] were 1690 nM and 119 nM, respectively.

On to `CCN1C(C(=O)c2ccccc2)=C(Nc2c(C)n(C)n(-c3ccccc3)c2=O)c2ccccc2S1(=O)=O`, for which the half-maximal cytotoxic concentration (CC50) in series [1] is greater than 100 µM. In addition, the EC50 in series [2] is 3310 nM; in series [3], greater than 12500 nM.

`O=C(Nc1ccc(F)cc1)N1CCN(c2ccc3nnc(-c4ccccc4)n3n2)CC1` displayed a CC50 in series [1] greater than 100 µM. Moreover, the EC50 in series [2] was 3290 nM; in series [3] it was greater than 12500 nM.

In the case of `COc1ccc(C2=C(c3ccc(OC)cc3)C3(c4ccccc4)C(=O)C2(c2ccccc2)C2C(=O)N(c4ccc(F)cc4)C(=O)C23)cc1` (configuration not stated), the CC50 in series [1] is greater than 100 µM. The EC50 in series [2] was found to be 3350 nM; in series [3] it was 2240 nM.

As to `CCOC(=O)c1c(CNc2ccncc2)n(C)c2cc(Br)c(O)cc12`, in series [1], the CC50 was greater than 10 µM. Besides, the EC50 in series [2] came to 333 nM; in series [3], 315 nM.

Compound `O=C1N=C(N2CCOCC2)S/C1=C/c1cccc2ccccc12` came in with a cytotoxic concentration (CC50) in series [1] greater than 10 µM. The EC50 in series [2] was 329 nM; in series [3], greater than 1250 nM.

In series [1], `Cc1ccc(NC(=O)N2CCN(C(=O)c3nc(-c4ccccc4)nc(C)c3C(=O)OC(C)C)CC2C)c(C)c1` (configuration not stated) showed a CC50 greater than 10 µM. Moreover, the figures for the EC50 in series [2] and in series [3] were 336 nM and greater than 271 nM, respectively.

On to `Cc1cccc2cc(CNC34CC5CC(CC(C5)C3)C4)c(N3CCC(N4CCC(O)CC4)CC3)nc12`, for which the CC50 in series [1] came to 4.9 µM. For the same compound, the EC50 in series [2] came to 163 nM; in series [3], 793 nM.

Usually CC50 stands for the concentration at which the toxic effect on the cells reaches its halfway point. Read a high CC50 as better tolerance by the cells. By EC50 is commonly meant the concentration that produces a half-maximal response.

Source of the values: ChEMBL document CHEMBL1156829 (Proc Natl Acad Sci U S A, 2008).
